According to ChEMBL document CHEMBL1201862, “PubChem BioAssay data set” (2004):
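Cells were grown in 96-well plates and exposed to each compound for 48 hours at five concentrations; endpoints were interpolated linearly between bracketing concentrations, or set to the highest concentration if not reached. Abbreviation: GI50, concentration required for 50% inhibition of growth.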 Activity calls are given as the source filed them. No stated cut-off is given here; in the data, active = GI50 up to about 1.1 µM and inactive = higher.

Experiments:
Experiment in all cases: NCI tumour cell line growth inhibition, 48 h
OVCAR-5 = tested on: OVCAR-5
NCI-H226 = tested on: NCI-H226
HCT-15 = tested on: HCT-15
K562 = tested on: K562
RXF 393 = tested on: RXF 393
COLO 205 = tested on: COLO 205
RPMI-8226 = tested on: RPMI-8226
SN12C = tested on: SN12C
UACC-257 = tested on: UACC-257
LOX IMVI = tested on: LOX IMVI
OVCAR-8 = tested on: OVCAR-8
MOLT-4 = tested on: MOLT-4
Malme-3M = tested on: Malme-3M
KM12 = tested on: KM12
SNB-19 = tested on: SNB-19
SR = tested on: SR
SK-MEL-5 = tested on: SK-MEL-5

Row | SMILES | GI50 (OVCAR-5) | GI50 (NCI-H226) | GI50 (HCT-15) | GI50 (K562) | GI50 (RXF 393) | GI50 (COLO 205) | GI50 (RPMI-8226) | GI50 (SN12C) | GI50 (UACC-257) | GI50 (LOX IMVI) | GI50 (OVCAR-8) | GI50 (MOLT-4) | GI50 (Malme-3M) | GI50 (KM12) | GI50 (SNB-19) | GI50 (SR) | GI50 (SK-MEL-5)
1 | COc1ccc(C2=Nc3ccccc3SC(C)C2)cc1 (stereo not given) | > 100 µM (inactive) | > 100 µM (inactive) | > 100 µM | 24.4 µM (inactive) | > 100 µM (inactive) | > 100 µM (inactive) | 17.3 µM (inactive) | > 100 µM (inactive) | > 100 µM (inactive) | 38.4 µM (inactive) | > 100 µM (inactive) | 49.8 µM (inactive) | > 100 µM (inactive) | 32.2 µM (inactive) | > 100 µM (inactive) | – | –
2 | O=Cn1c2ccccc2c2ccccc21 | > 100 µM (inactive) | – | > 100 µM | > 100 µM (inactive) | > 100 µM (inactive) | > 100 µM (inactive) | > 100 µM (inactive) | > 100 µM (inactive) | > 100 µM (inactive) | > 100 µM (inactive) | > 100 µM (inactive) | > 100 µM (inactive) | > 100 µM (inactive) | > 100 µM (inactive) | > 100 µM (inactive) | > 100 µM (inactive) | > 100 µM (inactive)
3 | CCCCCCCCCCCC[N+]12CC[N+](C)(CC1)CC2 | 17.1 µM (inactive) | 18.3 µM (inactive) | – | 23.8 µM (inactive) | 1.31 µM (inactive) | 5.28 µM (inactive) | 15.8 µM (inactive) | 18.3 µM (inactive) | > 100 µM (inactive) | 19.4 µM (inactive) | > 100 µM (inactive) | 27.9 µM (inactive) | 46.9 µM (inactive) | 7.31 µM (inactive) | 14 µM (inactive) | 6.18 µM (inactive) | > 100 µM (inactive)
4 | CCOc1ccccc1NC(=O)CC1C(=O)Nc2ccccc2[S+]1[O-] (stereo not given) | > 100 µM (inactive) | 60.5 µM (inactive) | > 100 µM | 49.7 µM (inactive) | 50 µM (inactive) | – | 11.4 µM (inactive) | > 100 µM (inactive) | > 100 µM (inactive) | > 100 µM (inactive) | 43.2 µM (inactive) | 10.5 µM (inactive) | > 100 µM (inactive) | – | > 100 µM (inactive) | 16.5 µM (inactive) | 54.8 µM (inactive)
5 | O=c1[nH]c2nc3ccccc3c(=O)n2nc1Cc1ccccc1 | > 100 µM (inactive) | 94.6 µM (inactive) | > 100 µM | > 100 µM (inactive) | – | > 100 µM (inactive) | > 100 µM (inactive) | > 100 µM (inactive) | > 100 µM (inactive) | > 100 µM (inactive) | > 100 µM (inactive) | > 100 µM (inactive) | > 100 µM (inactive) | > 100 µM (inactive) | > 100 µM (inactive) | > 100 µM (inactive) | > 100 µM (inactive)
6 | COc1ccccc1NC(=O)C1=C(C)NC(C)=C(C(=O)Nc2ccccc2OC)C1c1ccc(C(C)C)cc1 | > 100 µM (inactive) | > 100 µM (inactive) | > 100 µM | – | – | > 100 µM (inactive) | 7.38 µM (inactive) | > 100 µM (inactive) | 45.2 µM (inactive) | > 100 µM (inactive) | > 100 µM (inactive) | 9.18 µM (inactive) | 67.6 µM (inactive) | 55.6 µM (inactive) | > 100 µM (inactive) | 15.5 µM (inactive) | 38.9 µM (inactive)
7 | O=C(NCc1ccccc1)c1cc2ccc(O)c(O)c2cn1 | 26 µM (inactive) | 40 µM (inactive) | 26.7 µM | 33.8 µM (inactive) | 16.6 µM (inactive) | 32.1 µM (inactive) | 19.1 µM (inactive) | 17.6 µM (inactive) | 15.6 µM (inactive) | 3.82 µM (inactive) | 11.2 µM (inactive) | – | 16.7 µM (inactive) | 33.2 µM (inactive) | 35.4 µM (inactive) | 32.6 µM (inactive) | 11.1 µM (inactive)
8 | CN1C(=O)C2C(C1=O)C1(O)c3ccccc3C2(N)c2ccccc21 (stereo not given) | > 100 µM (inactive) | > 100 µM (inactive) | > 100 µM | > 100 µM (inactive) | > 100 µM (inactive) | > 100 µM (inactive) | – | > 100 µM (inactive) | > 100 µM (inactive) | > 100 µM (inactive) | > 100 µM (inactive) | > 100 µM (inactive) | > 100 µM (inactive) | > 100 µM (inactive) | > 100 µM (inactive) | – | > 100 µM (inactive)
9 | COC(=O)C(=O)C(/C(=N/N)C(=O)Nc1ccccc1C(N)=O)c1nc2ccc([N+](=O)[O-])cc2nc1O (stereo not given) | > 100 µM (inactive) | 29.3 µM (inactive) | > 100 µM | > 100 µM (inactive) | – | > 100 µM (inactive) | > 100 µM (inactive) | > 100 µM (inactive) | > 100 µM (inactive) | > 100 µM (inactive) | > 100 µM (inactive) | > 100 µM (inactive) | > 100 µM (inactive) | > 100 µM (inactive) | > 100 µM (inactive) | > 100 µM (inactive) | > 100 µM (inactive)
10 | N#Cc1cccc(C2SCc3nc4ccccc4n32)c1 (stereo not given) | 48 µM (inactive) | 28.9 µM (inactive) | – | 54.6 µM (inactive) | 80.2 µM (inactive) | > 100 µM (inactive) | – | 75.9 µM (inactive) | 80 µM (inactive) | > 100 µM (inactive) | > 100 µM (inactive) | 38.7 µM (inactive) | > 100 µM (inactive) | > 100 µM (inactive) | > 100 µM (inactive) | 38.4 µM (inactive) | 19.8 µM (inactive)
11 | CCCCNC1CCCCC[C@H]1O (stereo not given in full) | > 100 µM (inactive) | > 100 µM (inactive) | – | > 100 µM (inactive) | > 100 µM (inactive) | > 100 µM (inactive) | > 100 µM (inactive) | > 100 µM (inactive) | > 100 µM (inactive) | > 100 µM (inactive) | > 100 µM (inactive) | > 100 µM (inactive) | – | > 100 µM (inactive) | > 100 µM (inactive) | > 100 µM (inactive) | > 100 µM (inactive)
12 | COc1ccccc1C1C(C(=O)Nc2ccccc2)=C(C)NC(C)=C1C(=O)Nc1ccccc1 | 91 µM (inactive) | 53 µM (inactive) | 54 µM | 44.8 µM (inactive) | 80.2 µM (inactive) | 24.5 µM (inactive) | 19.5 µM (inactive) | > 100 µM (inactive) | 75.9 µM (inactive) | 83.2 µM (inactive) | > 100 µM (inactive) | 7.45 µM (inactive) | > 100 µM (inactive) | 28.2 µM (inactive) | > 100 µM (inactive) | – | 31.8 µM (inactive)
13 | C/C(=C\C(C)COCc1ccccc1)[C@H](COCc1ccccc1)OCc1ccccc1 (stereo not given in full) | > 100 µM (inactive) | > 100 µM (inactive) | > 100 µM | 73.1 µM (inactive) | 26.9 µM (inactive) | > 100 µM (inactive) | 50.1 µM (inactive) | > 100 µM (inactive) | – | 24.2 µM (inactive) | > 100 µM (inactive) | 46.9 µM (inactive) | – | > 100 µM (inactive) | > 100 µM (inactive) | – | 37.6 µM (inactive)
14 | CCC1C(=O)OCc2c1cc1n(c2=O)Cc2ccccc2-1 (stereo not given) | > 100 µM (inactive) | > 100 µM (inactive) | > 100 µM | > 100 µM (inactive) | > 100 µM (inactive) | – | > 100 µM (inactive) | > 100 µM (inactive) | > 100 µM (inactive) | > 100 µM (inactive) | > 100 µM (inactive) | > 100 µM (inactive) | > 100 µM (inactive) | > 100 µM (inactive) | > 100 µM (inactive) | > 100 µM (inactive) | > 100 µM (inactive)
15 | NC(=O)NNC(=O)CCn1[nH]c(=O)c(Cl)c(Cl)c1=O | > 100 µM (inactive) | > 100 µM (inactive) | > 100 µM | > 100 µM (inactive) | > 100 µM (inactive) | > 100 µM (inactive) | – | > 100 µM (inactive) | > 100 µM (inactive) | > 100 µM (inactive) | > 100 µM (inactive) | – | > 100 µM (inactive) | – | > 100 µM (inactive) | – | > 100 µM (inactive)
16 | O=C1OCc2nc3c(c(-c4ccccc4C(F)(F)F)c21)C(=O)OC3 | > 100 µM (inactive) | – | > 100 µM | > 100 µM (inactive) | > 100 µM (inactive) | > 100 µM (inactive) | > 100 µM (inactive) | > 100 µM (inactive) | > 100 µM (inactive) | > 100 µM (inactive) | > 100 µM (inactive) | > 100 µM (inactive) | > 100 µM (inactive) | > 100 µM (inactive) | > 100 µM (inactive) | > 100 µM (inactive) | > 100 µM (inactive)
17 | CC(=O)c1c(C)[n+]([O-])c2cc(C)c(C)cc2[n+]1[O-] | > 100 µM (inactive) | > 100 µM (inactive) | > 100 µM | > 100 µM (inactive) | – | > 100 µM (inactive) | > 100 µM (inactive) | > 100 µM (inactive) | > 100 µM (inactive) | > 100 µM (inactive) | > 100 µM (inactive) | > 100 µM (inactive) | > 100 µM (inactive) | > 100 µM (inactive) | > 100 µM (inactive) | – | > 100 µM (inactive)
18 | CCc1cccc(C)c1NC(=O)C1=C(C)NC(C)=C(C(=O)Nc2c(C)cccc2CC)C1c1ccc2c(c1)OCO2 | 22 µM (inactive) | 19.8 µM (inactive) | – | 27.2 µM (inactive) | 13.2 µM (inactive) | 18.5 µM (inactive) | 16.8 µM (inactive) | 19.2 µM (inactive) | 18.5 µM (inactive) | 18.3 µM (inactive) | 29.6 µM (inactive) | 21.2 µM (inactive) | 15.6 µM (inactive) | 16.4 µM (inactive) | 29.1 µM (inactive) | – | 16.2 µM (inactive)
